# Assays:
# α-glucosidase = tested on: α-glucosidase; parameters: method as in doi:10.1007/s10600-012-0275-4, PMID 25142941; settings: from the EtOAc fraction of the methanolic extract of C. obtusifolia; cited from earlier work
# [1] = biological target: T1, PTP1B (human recombinant) (Homo sapiens, UniProt P18031); experiment: Protein tyrosine phosphatase 1B (PTP1B) inhibition assay with pNPP as substrate; assay type: biochemical; settings: for PTP1B IC50 (Mean ± SEM) / IC50: pNPP substrate, test concentration up to 100 µg/mL in 10% DMSO, triplicate; for IC50: read-out: PTP1B IC50 (Mean ± SEM) (converted)
# T1 construct: purchased Biomol International LP (Plymouth Meeting, PA, USA)
# T1 sequence (P18031 1-435): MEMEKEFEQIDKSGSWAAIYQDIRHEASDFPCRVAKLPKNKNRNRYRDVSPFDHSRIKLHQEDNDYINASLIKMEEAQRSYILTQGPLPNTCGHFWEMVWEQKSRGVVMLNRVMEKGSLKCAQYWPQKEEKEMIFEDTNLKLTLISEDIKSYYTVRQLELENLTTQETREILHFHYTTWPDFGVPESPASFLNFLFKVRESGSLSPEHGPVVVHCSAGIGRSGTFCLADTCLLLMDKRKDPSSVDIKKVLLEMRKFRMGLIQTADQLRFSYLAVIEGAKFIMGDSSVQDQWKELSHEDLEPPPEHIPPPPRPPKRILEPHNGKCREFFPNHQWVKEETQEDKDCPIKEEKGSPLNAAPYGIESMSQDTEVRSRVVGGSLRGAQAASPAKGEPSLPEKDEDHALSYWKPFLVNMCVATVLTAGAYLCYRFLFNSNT
# Experimental: The PTP1B inhibitory activities were evaluated using p-nitrophenyl phosphate as the substrate (pNPP) in a procedure reported by Cui et al.. Each well of a 96-well plate (final volume 100 μL) contained were 40 μL of PTP1B enzyme (0.5 units diluted with a PTP1B reaction buffer containing 50 mM citrate (pH 6.0), 0.1 M NaCl, 1 mM EDTA, and 1 mM dithiotheritol (DTT)), to which sample (test concentration up to 100 μg/mL) dissolved in 10% DMSO was or was not added. The plate was pre-incubated at 37 °C for 10 min, and then 50 μL of 2 mM pNPP in PTP1B reaction buffer was added. Following incubation at 37 °C for 30 min, the reaction was terminated with the addition of 10 M NaOH. The amounts of p-nitrophenyl produced after enzymatic dephosphorylation from pNPP was estimated by measuring the absorbance at 405 nm using microplate spectrophotometer (Molecular Devices). The non-enzymatic hydrolysis of 2 mM pNPP was corrected by measuring the increase in absorbance at 405 nm obtained in the absence of PTP1B enzyme. The percent inhibition (%) was obtained by the following equation: % inhibition = (Ac − As)/Ac × 100, where Ac is the absorbance of the control, and As is the absorbance of the sample.
# Yeast α-glucosidase [2] = experiment: α-Glucosidase inhibitory assay with pNPG as substrate; assay type: biochemical; settings: test concentration up to 400 µg/mL in 10% DMSO, triplicate
# Experimental: Enzyme inhibition assays were carried out spectrophotometrically using a procedure reported by Li et al.. A 60 μL reaction mixture containing 20 μL of 100 mM phosphate buffer (pH 6.8), 20 μL of 2.5 mM pNPG, and 20 μL of sample (test concentration up to 400 μg/ml for compounds) dissolved in 10% DMSO was added to each well, followed by the addition of 20 μL of α-glucosidase (0.2 U/mL in 10 mM phosphate buffer (pH 6.8)). The plate was incubated at 37 °C for 15 min, and then 80 μL of 0.2 M sodium carbonate solution was added to stop the reaction. Right after that, the absorbance was recorded at 405 nm using a VERSA max microplate reader (Molecular Devices, Sunnyvale, CA, USA). The control contained the same reaction mixture with the same volume of phosphate buffer instead of sample solution. […] The percent inhibition (%) was obtained using the following equation: % Inhibition = (Ac − As)/Ac × 100, where Ac is the absorbance of the control, and As is the absorbance of the sample.
# [3] = tested on: insulin-resistant HepG2 cells; experiment: 2-NBDG glucose uptake assay in insulin-resistant HepG2 cells; assay type: cell-based, human; settings: for insulin-stimulated uptake of 2-NBDG: 24 h, compared to the control
# Experimental: The HepG2 (human hepatocarcinoma) cell line was purchased from the American Type Culture Collection (HB-8065, Manassas, VA, USA). Cells were maintained in MEM containing 2.0 mM L-glutamine, 0.1 mM non-essential amino acids, 1.0 mM sodium pyruvate, and 10% FBS at 37 °C in a humidified atmosphere with 5% CO2. The medium was changed every 48 h. […] The establishment of an insulin-resistant HepG2 cell model and glucose uptake was performed according to the reported method, with slight modifications. Briefly, HepG2 cells were cultured in 96-well cluster plates. After reaching confluence, the cells were treated with 10^−6 mol/L insulin for 24 h to induce insulin resistance. […] After this incubation, the 2-NBDG uptake in insulin-resistant HepG2 cells was measured. The cells were incubated with 40 μM 2-NBDG for 30 min. To stop the response, cells were washed with ice-cold PBS and the fluorescence intensity of 2-NBDG was measured on a Synergy HT microplate reader (BioTek Instruments, Winooski, VT, USA) at 485 nm excitation and 528 nm emission. Six replicate wells were established and each experiment was repeated three times.
# PTP1B = tested on: PTP1B; parameters: method as in earlier work; settings: cited from earlier work
# HepG2 cells = experiment: MTT cytotoxicity assay on HepG2 cells; settings: 24 h
# Experimental: Before determining the insulin resistance of alaternin and emodin, the cytotoxicity of alaternin and emodin on HepG2 cells was first measured by the MTT assay. […] To investigate the ability of alaternin and emodin to increase glucose uptake, a 2-[N-(7-nitrobenz-2-oxa-1,3-diazol-4-yl) amino]-2-deoxy-D-glucose (2-NBDG) uptake assay was performed with insulin-resistant HepG2 cells.
# Yeast α-glucosidase [4] = experiment: Enzyme kinetic analysis of α-glucosidase inhibition (Dixon and Lineweaver-Burk plots); assay type: biochemical; settings: for Inhibition type α-Glucosidase: Dixon plot and Lineweaver-Burk plot
# Experimental: (§1) Since the Ki value represents the concentration needed to form an enzyme-inhibitor complex, this value plays an important role in the development of preventive and therapeutic agents.
# (§2) In order to determine the inhibition mechanism, enzymatic inhibition at various concentrations of alaternin was evaluated by monitoring the effects of different concentrations of the substrates via Dixon plots (single reciprocal plot). Dixon plots of inhibition of PTP1B by alaternin were obtained in the presence of different concentrations of substrate: 1.0, 0.5, and 0.25 mM of pNPP. The test concentrations of alaternin in the PTP1B kinetic analysis were 0, 0.8, and 4.0 µM. Dixon plots of α-glucosidase inhibition by alaternin were performed in the presence of different concentrations of substrate: 2.5, 1.25, and 0.625 mM of pNPG. The test concentrations of alaternin used in the α-glucosidase kinetic analysis were 0.97, 1.95, and 3.90 µM. Both enzymatic procedures consisted of the same, aforementioned PTP1B and α-glucosidase assay methods. The inhibition constants (Ki) were determined by interpretation of the Dixon plots, where the value of the x-axis implies −Ki.
# [5] = biological target: T1, PTP1B (human recombinant); experiment: Enzyme kinetic analysis of PTP1B inhibition (Dixon and Lineweaver-Burk plots); assay type: biochemical
# Experimental: as §1, §2
IC50 [1] [µM],Molecule,PTP1B IC50 (Mean ± SEM) [1] [µg/mL],α-Glucosidase IC50 (Mean ± SEM) (Yeast α-glucosidase [2]) [µg/mL],other results
,COc1cccc2c1C(=O)c1c(O)cc(C)cc1C2=O [8-O-methyl chrysophanol],,,α-glucosidase inhibitory activity (reported) (α-glucosidase): α-glucosidase inhibitors
,Cc1cc(O[C@@H]2O[C@H](CO[C@@H]3O[C@H](CO)[C@@H](O)[C@H](O[C@@H]4O[C@H](CO[C@@H]5O[C@H](CO)[C@@H](O)[C@H](O)[C@H]5O)[C@@H](O)[C@H](O)[C@H]4O)[C@H]3O)[C@@H](O)[C@H](O)[C@H]2O)c2c(c1)C(=O)c1cccc(O)c1C2=O [Chrysophanol tetraglucoside],103.89 ± 1.22,228.79 ± 0.91,
,"CN(C)C(=N)N=C(N)N [metformin, reference compound]",,,"insulin-stimulated glucose uptake ([3]; metformin 10 μM, positive control): significantly increased"
,COc1c(O[C@@H]2O[C@H](CO)[C@@H](O)[C@H](O)[C@H]2O)c(C)cc2c1C(=O)c1c(O)cccc1C2=O [Gluco-obtusifolin],53.35 ± 0.44,23.77 ± 0.72,
,COc1c(O)c(O)cc2c1C(=O)c1c(O)cc(C)cc1C2=O [2-Hydroxyemodin-1 methylether],5.22 ± 0.29,5.65 ± 0.20,
,Cc1cc(O[C@@H]2O[C@H](CO[C@@H]3O[C@H](CO)[C@@H](O)[C@H](O[C@@H]4O[C@H](CO)[C@@H](O)[C@H](O)[C@H]4O)[C@H]3O)[C@@H](O)[C@H](O)[C@H]2O)c2c(c1)C(=O)c1cccc(O)c1C2=O [Chrysophanol triglucoside],80.17 ± 1.77,197.06 ± 1.09,
,Cassitoroside,,172.59 ± 0.74,
,COc1cc(C)cc2c1C(=O)c1c(O)cc(O)cc1C2=O [1-O-methylemodin],,,α-glucosidase inhibitory activity (reported) (α-glucosidase): inactive
,Toralactone gentiobioside,81.15 ± 0.15,37.60 ± 0.79,
25.6,COc1cc(O)c2c(c1)C(=O)c1cc(C)cc(O)c1C2=O [Physcion],,2.38 ± 0.77,α-glucosidase inhibitory activity (reported) (α-glucosidase): α-glucosidase inhibitors; PTP1B inhibition (previous reports) (PTP1B): inhibited PTP1B
41.5,COc1cc2c(c(OC)c1OC)C(=O)c1c(cc(C)c(O)c1OC)C2=O [Chryso-obtusin],,36.01 ± 0.89,α-glucosidase inhibitory activity (reported) (α-glucosidase): α-glucosidase inhibitors
23,Cc1cc(O)c2c(c1)C(=O)c1cccc(O)c1C2=O [Chrysophanol],,46.81 ± 0.12,PTP1B inhibition (previous reports) (PTP1B): inhibited PTP1B
82.3,COc1c(O)cc2c(c1O)C(=O)c1c(cc(C)c(O)c1OC)C2=O [Aurantio-obtusin],,41.20 ± 0.17,α-glucosidase inhibitory activity (reported) (α-glucosidase): inactive
124,COc1c(O)c(C)cc2c1C(=O)c1c(O)cccc1C2=O [Obtusifolin],,142.12 ± 0.77,α-glucosidase inhibitory activity (reported) (α-glucosidase): inactive
20,COc1cc(O)cc2c1C(=O)c1c(O)cc(C)cc1C2=O [Questin],,136.19 ± 0.01,
,COc1c(O[C@@H]2O[C@H](CO)[C@@H](O)[C@H](O)[C@H]2O)cc2c(c1O)C(=O)c1c(cc(C)c(O)c1OC)C2=O [Gluco-aurantio obtusin],31.30 ± 0.97,142.19 ± 1.22,
,COc1cc2c(c(O)c1OC)C(=O)c1c(cc(C)c(O)c1OC)C2=O [Obtusin],6.44 ± 0.22,20.92 ± 0.41,
,"COc1cc2c(c(OC)c1OC)C(=O)c1c(cc(C)c(O[C@@H]3O[C@H](CO)[C@@H](O)[C@H](O)[C@H]3O)c1OC)C2=O [Chryso-obtusin-2-glucoside, chryso-obtusin-2-O-β-D-glucoside]",39.34 ± 1.07,178.85 ± 0.55,
,Cassiaside,48.55 ± 1.27,129.23 ± 0.98,

Molecule,IC50 [1] [µM],PTP1B IC50 (Mean ± SEM) [1] [µg/mL],α-Glucosidase IC50 (Mean ± SEM) (Yeast α-glucosidase [2]) [µg/mL],other results
"Cc1cc(O)c2c(c1)C(=O)c1cc(O)cc(O)c1C2=O [Emodin, 1,6,8-trihydroxy 3-methyl anthraquinone]",13,,1.02 ± 0.01,"concentration without any cytotoxicity (HepG2 cells; human): up to 12.5 µM; insulin-stimulated uptake of 2-NBDG ([3]; 3.125, 6.25, and 12.5 μM emodin): significantly enhanced; PTP1B inhibition (previous reports) (PTP1B): inhibited PTP1B"
O=C1c2cccc(O)c2C(=O)c2c(O)cc(CO)cc21 [Aloe-emodin],207,,1.40 ± 0.27,
"Cc1cc2c(c(O)c1O)C(=O)c1c(O)cc(O)cc1C2=O [Alaternin, 2-hydroxy emodin]",4.26,,0.99 ± 0.02,"concentration without any cytotoxicity (HepG2 cells; HepG2 cells, MTT): up to 50 µM; PTP1B inhibitory activity compared with emodin ([1]; fold higher than emodin): three-fold higher; insulin-stimulated uptake of 2-NBDG ([3]; 12.5, 25, and 50 μM alaternin): significantly enhanced; Inhibition type α-Glucosidase (Yeast α-glucosidase [4]): mixed type; Inhibition type α-Glucosidase (Yeast α-glucosidase [4]; listed as alaternin): Mixed; Ki (Yeast α-glucosidase [4]; Dixon plot, pNPG 2.5, 1.25, 0.625 mM): 0.66 µM; Inhibition type PTP1B ([5]; Dixon plot and Lineweaver-Burk plot): Competitive; Ki ([5]; Dixon plot, pNPP 1.0, 0.5, 0.25 mM): 1.7 µM"
